Assay results from patent publication US20170119726A1, “Stabilized Cabazitaxel Formulations” (Cipla (UK) Limited, priority 2015, published 2017).

Assays:
[1] = Study 4: in-life observations (mortality, clinical signs, body weight); conditions: both treatment groups, 12 mg/kg IV on days 1, 7, 13, 19, nude mice
Description: (§1) DU145 cells (5×106) at their exponential growth phase were inoculated subcutaneously on the dorsal right flank in athymic female mice. […] Animals in the vehicle control group received 5 w/v % dextrose solution. Growth of prostate xenografts (tumor volume) and whole body weights were recorded twice weekly (on days 1, 3, 5, 8, 10, 15, 17, 19) during treatment period. Animals were also monitored for clinical signs and mortality everyday throughout the study. On the day of sacrifice (day 19), blood and tumors were collected from set of animals (4 animals in each time point) at stipulated time points (1, 2, 3, and 4 h post-dose). At the end of blood collection, animals were humanely euthanized by cervical dislocation and tumor in toto was harvested from all the animals, transferred to pre-labeled microcentrifuge tubes before flash freezing in liquid nitrogen.

[2] = mouse, in vivo, iv, 12 mg/kg
Description: as §1

## CO[C@H]1C(=O)[C@]2(C)[C@@H](OC)C[C@H]3OC[C@@]3(OC(C)=O)[C@H]2[C@H](OC(=O)c2ccccc2)[C@]2(O)C[C@H](OC(=O)[C@H](O)[C@@H](NC(=O)OC(C)(C)C)c3ccccc3)C(C)=C1C2(C)C [Cabazitaxel, (2α,5β,7β,10β, 13α)-4-acetoxy-13-({(2R,3S)-3[(tertbutoxycarbonyl)amino]-2-hydroxy-3-phenylpropanoyl}-oxy)-1-hydroxy-7,10-dimethoxy-9-oxo-5,20-epoxytax-11-en-2-yl benzoate]
[1]
  mortality: no mortality was observed
[2]
  tolerability: well tolerated
